Source: PubChem BioAssay (NCI)
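Abbreviation: GI50, concentration required for 50% inhibition of growth. At the TGI there is no net growth.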

Tests used:
Assay in all cases: DTP human tumour cell line panel, 384-well format
786-0 renal = system: 786-0 renal
A498 renal = system: A498 renal
A549 NSCLC = system: A549 NSCLC
ACHN renal = system: ACHN renal
BT-549 breast = system: BT-549 breast
CAKI-1 renal = system: CAKI-1 renal
CCRF-CEM leukemia = system: CCRF-CEM leukemia
COLO 205 colon = system: COLO 205 colon
DU-145 prostate = system: DU-145 prostate
EKVX NSCLC = system: EKVX NSCLC
HCC-2998 colon = system: HCC-2998 colon
HCT-116 colon = system: HCT-116 colon
HCT-15 colon = system: HCT-15 colon
HL-60(TB) leukemia = system: HL-60(TB) leukemia
HOP-62 NSCLC = system: HOP-62 NSCLC
HOP-92 NSCLC = system: HOP-92 NSCLC
HS 578T breast = system: HS 578T breast
HT29 colon = system: HT29 colon
IGROV1 ovarian = system: IGROV1 ovarian
K-562 leukemia = system: K-562 leukemia
KM12 colon = system: KM12 colon
LOX IMVI melanoma = system: LOX IMVI melanoma
M14 melanoma = system: M14 melanoma
MALME-3M melanoma = system: MALME-3M melanoma
MCF7 breast = system: MCF7 breast
MDA-MB-231 breast = system: MDA-MB-231 breast
MDA-MB-435 melanoma = system: MDA-MB-435 melanoma
MDA-MB-468 breast = system: MDA-MB-468 breast
MOLT-4 leukemia = system: MOLT-4 leukemia
NCI-H226 lung = system: NCI-H226 lung
NCI-H23 lung = system: NCI-H23 lung
NCI-H322M lung = system: NCI-H322M lung
NCI-H460 NSCLC = system: NCI-H460 NSCLC
NCI-H522 lung = system: NCI-H522 lung
NCI/ADR-RES ovarian = system: NCI/ADR-RES ovarian
OVCAR-3 ovarian = system: OVCAR-3 ovarian
OVCAR-4 ovarian = system: OVCAR-4 ovarian
OVCAR-8 ovarian = system: OVCAR-8 ovarian
PC-3 prostate = system: PC-3 prostate
RPMI-8226 leukemia = system: RPMI-8226 leukemia
RXF 393 renal = system: RXF 393 renal
SF-268 CNS = system: SF-268 CNS
SF-295 CNS = system: SF-295 CNS
SF-539 CNS = system: SF-539 CNS
SK-MEL-28 melanoma = system: SK-MEL-28 melanoma
SK-MEL-5 melanoma = system: SK-MEL-5 melanoma
SK-OV-3 ovarian = system: SK-OV-3 ovarian
SN12C renal = system: SN12C renal
SNB-19 CNS = system: SNB-19 CNS
SNB-75 CNS = system: SNB-75 CNS
SR leukemia = system: SR leukemia
SW-620 colon = system: SW-620 colon
T-47D breast = system: T-47D breast
TK-10 renal = system: TK-10 renal
U251 glioblastoma = system: U251 glioblastoma
UACC-257 melanoma = system: UACC-257 melanoma
UACC-62 melanoma = system: UACC-62 melanoma
UO-31 renal = system: UO-31 renal

C[C@@H](Nc1cc(F)cc(F)c1)c1cc(C(=O)N(C)C)cc2c(=O)cc(N3CCOCC3)oc12
GI50 ([…]-0 renal): 1.24 µM
TGI (786-0 renal): > 100 µM
GI50 (A498 renal): 0.0447 µM
TGI (A498 renal): 1.31 µM
GI50 (A549 NSCLC): 7.85 µM
TGI (A549 NSCLC): > 100 µM
GI50 (ACHN renal): 6.68 µM
TGI (ACHN renal): > 100 µM
GI50 (BT-549 breast): 0.341 µM
TGI (BT-549 breast): > 100 µM
GI50 (CAKI-1 renal): 0.25 µM
TGI (CAKI-1 renal): > 100 µM
GI50 (CCRF-CEM leukemia): 13.4 µM
TGI (CCRF-CEM leukemia): 57.9 µM
GI50 (COLO 205 colon): 13.4 µM
TGI (COLO 205 colon): > 100 µM
GI50 (DU-145 prostate): 17.4 µM
TGI (DU-145 prostate): > 100 µM
GI50 (EKVX NSCLC): 2.4 µM
TGI (EKVX NSCLC): > 100 µM
GI50 (HCC-2998 colon): 5.66 µM
TGI (HCC-2998 colon): 55.6 µM
GI50 (HCT-116 colon): 10.5 µM
TGI (HCT-116 colon): > 100 µM
GI50 (HCT-15 colon): 25.5 µM
TGI (HCT-15 colon): > 100 µM
GI50 (HL-60(TB) leukemia): 0.599 µM
TGI (HL-60(TB) leukemia): 9.14 µM
GI50 (HOP-62 NSCLC): 28.8 µM
TGI (HOP-62 NSCLC): > 100 µM
GI50 (HOP-92 NSCLC): 0.627 µM
TGI (HOP-92 NSCLC): > 100 µM
GI50 (HS 578T breast): 0.902 µM
TGI (HS 578T breast): 32.8 µM
GI50 (HT29 colon): 6.45 µM
TGI (HT29 colon): > 100 µM
GI50 (IGROV1 ovarian): 0.392 µM
TGI (IGROV1 ovarian): 3.29 µM
GI50 (K-562 leukemia): 55.1 µM
TGI (K-562 leukemia): > 100 µM
GI50 (KM12 colon): 23.5 µM
TGI (KM12 colon): > 100 µM
GI50 (LOX IMVI melanoma): 17 µM
TGI (LOX IMVI melanoma): > 100 µM
GI50 (M14 melanoma): 20.4 µM
TGI (M14 melanoma): > 100 µM
GI50 (MALME-3M melanoma): 1.13 µM
TGI (MALME-3M melanoma): 63.1 µM
GI50 (MCF7 breast): 0.666 µM
TGI (MCF7 breast): > 100 µM
GI50 (MDA-MB-231 breast): 49.1 µM
TGI (MDA-MB-231 breast): > 100 µM
GI50 (MDA-MB-435 melanoma): 87 µM
TGI (MDA-MB-435 melanoma): > 100 µM
GI50 (MDA-MB-468 breast): 1.59 µM
TGI (MDA-MB-468 breast): 12.7 µM
GI50 (MOLT-4 leukemia): 1.11 µM
TGI (MOLT-4 leukemia): 10.8 µM
GI50 (NCI-H226 lung): 67.6 µM
TGI (NCI-H226 lung): > 100 µM
GI50 (NCI-H23 lung): 31.8 µM
TGI (NCI-H23 lung): > 100 µM
GI50 (NCI-H322M lung): 8.36 µM
TGI (NCI-H322M lung): 78 µM
GI50 (NCI-H460 NSCLC): 4.5 µM
TGI (NCI-H460 NSCLC): > 100 µM
GI50 (NCI-H522 lung): 23.7 µM
TGI (NCI-H522 lung): > 100 µM
GI50 (NCI/ADR-RES ovarian): > 100 µM
TGI (NCI/ADR-RES ovarian): > 100 µM
GI50 (OVCAR-3 ovarian): 0.465 µM
TGI (OVCAR-3 ovarian): 18 µM
GI50 (OVCAR-4 ovarian): > 100 µM
TGI (OVCAR-4 ovarian): > 100 µM
GI50 (OVCAR-8 ovarian): 10.3 µM
TGI (OVCAR-8 ovarian): > 100 µM
GI50 (PC-3 prostate): 0.261 µM
TGI (PC-3 prostate): > 100 µM
GI50 (RPMI-8226 leukemia): 16.6 µM
TGI (RPMI-8226 leukemia): 51.1 µM
GI50 (RXF 393 renal): 0.182 µM
TGI (RXF 393 renal): 8.24 µM
GI50 (SF-268 CNS): 13.1 µM
TGI (SF-268 CNS): > 100 µM
GI50 (SF-295 CNS): 0.611 µM
TGI (SF-295 CNS): 16 µM
GI50 (SF-539 CNS): 12 µM
TGI (SF-539 CNS): > 100 µM
GI50 (SK-MEL-28 melanoma): 1.39 µM
TGI (SK-MEL-28 melanoma): > 100 µM
GI50 (SK-MEL-5 melanoma): 11.3 µM
TGI (SK-MEL-5 melanoma): > 100 µM
GI50 (SK-OV-3 ovarian): 3.48 µM
TGI (SK-OV-3 ovarian): > 100 µM
GI50 (SN12C renal): 0.215 µM
TGI (SN12C renal): > 100 µM
GI50 (SNB-19 CNS): 68.6 µM
TGI (SNB-19 CNS): > 100 µM
GI50 (SNB-75 CNS): 0.762 µM
TGI (SNB-75 CNS): > 100 µM
GI50 (SR leukemia): 0.385 µM
TGI (SR leukemia): 16.6 µM
GI50 (SW-620 colon): 61.4 µM
TGI (SW-620 colon): > 100 µM
GI50 (T-47D breast): 0.591 µM
TGI (T-47D breast): 9.05 µM
GI50 (TK-10 renal): 3.57 µM
TGI (TK-10 renal): > 100 µM
GI50 (U251 glioblastoma): 39.2 µM
TGI (U251 glioblastoma): > 100 µM
GI50 (UACC-257 melanoma): 17.2 µM
TGI (UACC-257 melanoma): > 100 µM
GI50 (UACC-62 melanoma): 0.981 µM
TGI (UACC-62 melanoma): 24.7 µM
GI50 (UO-31 renal): 6.38 µM
TGI (UO-31 renal): > 100 µM
